What was measured:
Type in all cases: in vivo
[1] = test system: indian mustard (Brassica juncea (L.) Czern. et Coss); assay: Test Example 2: herbicidal effects (soil treatment); details: dosage 5 kg/a; soil treatment the day after seeding; judged after 21 days
Excerpt: (§1) Judgment Standard • 0: Growth inhibition rate; 0 to 10% • 1: Growth inhibition rate; 11 to 30% • 2: Growth inhibition rate; 31 to 50% • 3: Growth inhibition rate; 51 to 70% • 4: Growth inhibition rate; 71 to 90% • 5: Growth inhibition rate; 91 to 100%.
(§2) Upland soil was filled in 150 cm^2 pot, and seeds of barnyardgrass and indian mustard (Brassica juncea (L.) Czern. et Coss) were sowed, and grown in a greenhouse. At the next day of seeding, a predetermined chemical dosage of the wettable powder prepared in accordance with Preparation example 1 was diluted in water and applied to soil surface. After 21 days from the treatment, herbicidal effects were judged in accordance with the judgment standard of Test example 1, and the results were shown in Table 3.

[2] = test system: barnyardgrass; assay: as above; details: dosage 5 kg/a; soil treatment the day after seeding; judged after 21 days
Excerpt: as §1, §2

[3] = test system: transplanted paddy-field rice; assay: Test Example 1: crop injury against transplanted paddy-field rice; details: wettable powder applied 3 days after transplanting, judged after 25 days
How it was run: (§3)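 Paddy-soil pots sown with weed seeds, germinated Cyperus serotinus tubers and 2.2-leaf rice transplants, kept flooded in a greenhouse. Wettable powder diluted in water applied at set dosage 3 days after transplanting. Weed control and rice injury scored 25 days later on a 0-5 growth-inhibition scale.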

[4] = test system: Cyperus serotinus; assay: Test Example 1: herbicidal effects, paddy-field pot test; details: wettable powder applied 3 days after transplanting, judged after 25 days
How it was run: as §3

[5] = test system: annual broad-leaved weeds (Lindernia spp., Rotala indica); assay: as above; details: wettable powder applied 3 days after transplanting, judged after 25 days
How it was run: as §3

[6] = test system: barnyardgrass (Echinochloa oryzicola Vasing.); assay: as above; details: wettable powder applied 3 days after transplanting, judged after 25 days
How it was run: as §3

[7] = test system: Scirpus joncoides; assay: as above; details: wettable powder applied 3 days after transplanting, judged after 25 days
How it was run: as §3

[8] = test system: tall morningglory; assay: Test Example 3: herbicidal effects (foliar treatment); details: chemical dosage 0.5 kg/a; foliar treatment at 10 to 15 cm; judged after 14 days
Experimental: as §1
(§4) Upland soil was filled in 150 cm^2 pot, and seeds of velvetleaf, tall morningglory, indian mustard, black nightshade redroot pigweed were sowed, and grown in a greenhouse. After the weeds were grown with 10 to 15 cm or so, a predetermined chemical dosage of the wettable powder prepared in accordance with Preparation example 1 was diluted with water containing 0.05% of GRAMIN-S and applied as a foliar treatment. After 14 days from the treatment, herbicidal effects were judged in accordance with the judgment standard of Test example 1, and the results were shown in Table 4. Incidentally, “-” in the table means no test was carried out.

[9] = test system: redroot pigweed; assay: as above; details: chemical dosage 0.5 kg/a; foliar treatment at 10 to 15 cm; judged after 14 days
Experimental: as §1, §4

[10] = test system: indian mustard; assay: as above; details: chemical dosage 0.5 kg/a; foliar treatment at 10 to 15 cm; judged after 14 days
Experimental: as §1, §4

[11] = test system: corn; assay: Test Example 6: crop injury against corn (foliar treatment); details: after 14 days
Excerpt: (§5) Judgment Standard • 0: Growth inhibition rate; 0 to 9% • 1: Growth inhibition rate; 10 to 19% • 2: Growth inhibition rate; 20 to 29% • 3: Growth inhibition rate; 30 to 39% • 4: Growth inhibition rate; 40 to 49% • 5: Growth inhibition rate; 50 to 59% • 6: Growth inhibition rate; 60 to 69% • 7: Growth inhibition rate; 70 to 79% • 8: Growth inhibition rate; 80 to 89% • 9: Growth inhibition rate; 90 to 98% • 10: Growth inhibition rate; 99 to 100%.
(§6) Upland soil was filled in 150 cm^2 pot, and seeds of barnyardgrass, Cyperus esculentus L., velvetleaf, black nightshade, tall morningglory and corn were sowed, and grown in a greenhouse. After the weeds were grown with 10 to 15 cm or so, a predetermined chemical dosage of the wettable powder prepared in accordance with Preparation example 5 was diluted with water containing 0.05% of GRAMIN S and applied as a foliar treatment. After 14 days from the treatment, herbicidal effects and crop injury were judged in accordance with the judgment standard of Test example 5, and the results were shown in Tables 9 and 10. Incidentally, “-” in the table means no effective ingredient was contained.

[12] = test system: corn; assay: Test Example 5: crop injury against corn (soil treatment); details: after 21 days
Experimental: (§7) Upland soil was filled in 150 cm^2 pot, and seeds of barnyardgrass, Cyperus esculentus L., velvetleaf, black nightshade, tall morningglory and corn were sowed, and grown in a greenhouse. At the next day of seeding, a predetermined chemical dosage of the wettable powder prepared in accordance with Preparation example 5 was diluted with water and applied to soil surface. After 21 days from the treatment, herbicidal effects and crop injury against corn were judged according to the following judgment standard, and the results were shown in Tables 6 to 8.
as §5

[13] = test system: tall morningglory; assay: Test Example 6: herbicidal effects, upland (foliar treatment); details: after 14 days
Excerpt: as §5, §6

[14] = test system: velvetleaf; assay: as above; details: after 14 days
Excerpt: as §5, §6

[15] = test system: black nightshade; assay: as above; details: after 14 days
Excerpt: as §5, §6

[16] = test system: Cyperus esculentus L.; assay: as above; details: after 14 days
Excerpt: as §5, §6

[17] = test system: barnyardgrass; assay: as above; details: after 14 days
Excerpt: as §5, §6

[18] = test system: tall morningglory; assay: Test Example 5: herbicidal effects, upland (soil treatment); details: after 21 days
Experimental: as §7, §5

[19] = test system: velvetleaf; assay: as above; details: after 21 days
Experimental: as §7, §5

[20] = test system: black nightshade; assay: as above; details: after 21 days
Experimental: as §7, §5

[21] = test system: Cyperus esculentus L.; assay: as above; details: after 21 days
Experimental: as §7, §5

[22] = test system: barnyardgrass; assay: as above; details: after 21 days
Experimental: as §7, §5

Oc1cc(Cl)nnc1Oc1c(F)cccc1C1CC1 [Example 236]
0 (Growth inhibition rate; 0 to 10%): Crop injury against transplanted rice ([3]; chemical dosage 10 g/a) | Crop injury against transplanted rice ([3]; chemical dosage 20 g/a)
4 (Growth inhibition rate; 71 to 90%): Herbicidal effects Barnyard grass ([6]; chemical dosage 20 g/a) | Herbicidal effects Tall Morningglory [8]
3 (Growth inhibition rate; 51 to 70%): Herbicidal effects Barnyard-grass [2] | Herbicidal effects Barnyard grass ([6]; chemical dosage 10 g/a) | Herbicidal effects Redroot pigweed [9] | Herbicidal effects indian mustard [10]
5 (Growth inhibition rate; 91 to 100%): Herbicidal effects indian mustard [1] | Herbicidal effects Cyperus serotinus ([4]; chemical dosage 10 g/a) | Herbicidal effects Cyperus serotinus ([4]; chemical dosage 20 g/a) | Herbicidal effects Broad leaf ([5]; chemical dosage 10 g/a) | Herbicidal effects Broad leaf ([5]; chemical dosage 20 g/a) | Herbicidal effects Scirpus joncoides ([7]; chemical dosage 10 g/a) | Herbicidal effects Scirpus joncoides ([7]; chemical dosage 20 g/a)

CS(=O)(=O)c1ccc(C(=O)C2C(=O)CCCC2=O)c([N+](=O)[O-])c1 [Compound F, 2-(4-mesyl-2-nitrobenzoyl)cyclohexan-1,3-dione]
2 (Growth inhibition rate; 20 to 29%): Herbicidal effects Tall Morningglory ([13]; F alone 25 g/ha) | Herbicidal effects Barnyard grass ([17]; F alone 100 g/ha) | Herbicidal effects Tall Morningglory ([18]; F alone 25 g/ha)
0 (Growth inhibition rate; 0 to 9%): Crop injury against corn ([11]; F alone 25 g/ha) | Crop injury against corn ([11]; F alone 50 g/ha) | Crop injury against corn ([11]; F alone 100 g/ha) | Crop ijury against corn ([12]; F alone 25 g/ha) | Crop ijury against corn ([12]; F alone 50 g/ha) | Crop ijury against corn ([12]; F alone 100 g/ha) | Herbicidal effects Barnyard grass ([17]; F alone 25 g/ha) | Herbicidal effects Barnyard grass ([17]; F alone 50 g/ha)
8 (Growth inhibition rate; 80 to 89%): Herbicidal effects Tall Morningglory ([18]; F alone 100 g/ha) | Herbicidal effects Black Nightshade ([20]; F alone 100 g/ha) | Herbicidal effects Cyperus esculentus ([21]; F alone 25 g/ha) | Herbicidal effects Barnyard grass ([22]; F alone 50 g/ha)
3 (Growth inhibition rate; 30 to 39%): Herbicidal effects Black Nightshade ([20]; F alone 50 g/ha)
6 (Growth inhibition rate; 60 to 69%): Herbicidal effects Cyperus esculentus ([16]; F alone 100 g/ha) | Herbicidal effects Black Nightshade ([20]; F alone 25 g/ha)
10 (Growth inhibition rate; 99 to 100%): Herbicidal effects Velvetleaf ([14]; F alone 50 g/ha) | Herbicidal effects Velvetleaf ([14]; F alone 100 g/ha) | Herbicidal effects Black Nightshade ([15]; F alone 50 g/ha) | Herbicidal effects Velvetleaf ([19]; F alone 50 g/ha) | Herbicidal effects Velvetleaf ([19]; F alone 100 g/ha)
7 (Growth inhibition rate; 70 to 79%): Herbicidal effects Black Nightshade ([15]; F alone 25 g/ha)
9 (Growth inhibition rate; 90 to 98%): Herbicidal effects Tall Morningglory ([13]; F alone 100 g/ha) | Herbicidal effects Velvetleaf ([14]; F alone 25 g/ha) | Herbicidal effects Black Nightshade ([15]; F alone 100 g/ha) | Herbicidal effects Velvetleaf ([19]; F alone 25 g/ha) | Herbicidal effects Cyperus esculentus ([21]; F alone 50 g/ha) | Herbicidal effects Cyperus esculentus ([21]; F alone 100 g/ha) | Herbicidal effects Barnyard grass ([22]; F alone 100 g/ha)
5 (Growth inhibition rate; 50 to 59%): Herbicidal effects Tall Morningglory ([13]; F alone 50 g/ha) | Herbicidal effects Cyperus esculentus ([16]; F alone 50 g/ha) | Herbicidal effects Tall Morningglory ([18]; F alone 50 g/ha)
4 (Growth inhibition rate; 40 to 49%): Herbicidal effects Cyperus esculentus ([16]; F alone 25 g/ha) | Herbicidal effects Barnyard grass ([22]; F alone 25 g/ha)
